The source of these data is patent US8648059B2, “Use of epicatechin and derivatives and salts thereof for cardiac protection of ischemic myocardium and to ameliorate adverse cardiac remodeling” (The Regents of the University of California, priority 2008, dated 2014).

Assay type in all cases: in vivo, rat
The subject of one data set is Sprague Dawley rats. Nature of the data set: IR (30 minutes ischemia) infarct size, single IV therapy 15 min before reperfusion. On the procedure:
Lateral thoracotamy with 30 minutes ischemia>reperfusion was performed a treated per the groups above 15 min before reperfusion IV in the femoral artery. Animals were humanely sacrificed and the hearts were then section and stained to examine tissue injury.

Data set [1] deals with Sprague-Dawley rats. Nature of the data set: Cardiac morphometry after permanent coronary occlusion (Example 2). The settings on record: epicatechin. Here is the method:
(§1) Determination of Infarct Size: Terminal study hearts were excised and weighed. In 48 h hearts, the area at risk was determined by the reocclusion of the snare and infusion of trypan blue (0.4%) into the cannulated aorta. […] Computer assisted image analysis was used using blinded operators. For 3 week studies hearts were processed as above and sectioned to identify the infarct (i.e. scar) area. The images of unfixed, stained rings were also used to measure internal and external chamber diameters, anterior and septal wall thicknesses. Adult male Sprague-Dawley rats (Harlan, Indianapolis, Ind.) weighing ˜250 g were used. […] Sigma-Aldrich, St. Louis, Mo.) or vehicle (water) was administered orally by gavage once/day beginning 10 days before thoracotomy and continuing until the time of the terminal study (48 h or 3 weeks). Thoracotomy was performed at day 10. In the sham group, the chest was only opened and closed; no artery was permanently occluded. For the infarct group, the left anterior descending coronary artery was permanently occluded. In the 48 hour treatment arm, the animals were allowed to heal with treatment of epicatechin at 1 mg/kg/day continued for 48 hours. At 48 hours the animals were anesthetized and hemodynamics recorded. The heart was excised and for infarcted animals only the infarct size and heart structure (morphometry) were determined. In the 3 week treatment arm, the animals were allowed to heal for 3 weeks with daily treatment of epicatechin at 1 mg/kg/day. At 3 weeks the animals were anesthetized and hemodynamics recorded. The heart was excised and for infarcted animals only the infarct size and heart structure (morphometry) were determined.

For data set [2], the system named is Sprague-Dawley rats. Nature of the data set: Hemodynamics in normal, sham and IR rats (Example 1). Here is the method:
(§2) Adult male Sprague-Dawley rats (Harlan, Indianapolis, Ind.) weighing ˜250 g were used. Epicatechin (1 mg/kg/day; Sigma-Aldrich, St. Louis, Mo.) or vehicle (water) was administered orally by gavage once/day beginning 10 days before thoracotomy and continuing until the time of the terminal study (48 h or 3 weeks). A subgroup of “normal” animals were treated with water or epicatechin for 10 day and were used to evaluate the effects of epicatechin on hemodynamics. For 48 hr studies the groups included IR and IR+10 day epicatechin. For 3 week studies, the groups included sham, sham+10 day epicatechin, IR and IR+10 day epicatechin.
(§3) Hemodynamics: All animals were weighed and anesthetized with 5% isoflurane (maintenance at 1-2%). Arterial (carotid) and LV pressures were measured using a micromanometer just prior to sacrifice and data digitally recorded.
Hemodynamics: Hemodynamics (Table 1A) were measured in normal and normal+10 d epicatechin. […] Values shown are mean ±SEM. Statistical analysis was done by ANOVA except where denoted. In the IR group the rats are fed the control and ischemia is induced (by temporary occlusion of the coronary artery). In the IR+epicatechin the rats are given epicatechin and ischemia is induced. […] The purpose of these two groups was to determine baseline hemodynamics.

Data set [3] has as its system Sprague-Dawley rats. Nature of the data set: Permanent coronary occlusion infarct size (Example 2). As to conditions: epicatechin 1 mg/kg/day oral. On the procedure:
as §1, with “For the infarct group, the left anterior descending coronary artery was permanently occluded. In the 48 hour treatment arm, the animals were allowed to heal with treatment of epicatechin at 1 mg/kg/day continued for 48 hours.” left out, “In the 3 week treatment arm, the animals were allowed to heal for 3 weeks with daily treatment of epicatechin at 1 mg/kg/day.” left out

Data set [4] has as its system Sprague-Dawley rats. Nature of the data set: Cardiac morphometry 3 weeks after IR (Example 1). The settings on record: epicatechin. Here is the method:
Adult male Sprague-Dawley rats (Harlan, Indianapolis, Ind.) weighing ˜250 g were used. […] Sigma-Aldrich, St. Louis, Mo.) or vehicle (water) was administered orally by gavage once/day beginning 10 days before thoracotomy and continuing until the time of the terminal study (48 h or 3 weeks). A subgroup of “normal” animals were treated with water or epicatechin for 10 day and were used to evaluate the effects of epicatechin on hemodynamics. […] Determination of Infarct Size: Terminal study hearts were excised and weighed. In 48 h hearts, the area at risk was determined by the reocclusion of the snare and infusion of trypan blue (0.4%) into the cannulated aorta. […] Computer assisted image analysis was used using blinded operators. For 3 week studies hearts were processed as above and sectioned to identify the infarct (i.e. scar) area. The images of unfixed, stained rings were also used to measure internal and external chamber diameters, anterior and septal wall thicknesses.

The test system of data set [5] is Sprague-Dawley rats. Nature of the data set: Hemodynamics after permanent coronary occlusion (Example 2). As to conditions: for LVEDP / LVPSP / MAP: epicatechin; for HR: epicatechin 1 mg/kg/day. On the procedure: as §3
Adult male Sprague-Dawley rats (Harlan, Indianapolis, Ind.) weighing ˜250 g were used. Epicatechin (1 mg/kg/day; Sigma-Aldrich, St. Louis, Mo.) or vehicle (water) was administered orally by gavage once/day beginning 10 days before thoracotomy and continuing until the time of the terminal study (48 h or 3 weeks). Thoracotomy was performed at day 10. In the sham group, the chest was only opened and closed; no artery was permanently occluded. For the infarct group, the left anterior descending coronary artery was permanently occluded. In the 48 hour treatment arm, the animals were allowed to heal with treatment of epicatechin at 1 mg/kg/day continued for 48 hours. At 48 hours the animals were anesthetized and hemodynamics recorded. The heart was excised and for infarcted animals only the infarct size and heart structure (morphometry) were determined. In the 3 week treatment arm, the animals were allowed to heal for 3 weeks with daily treatment of epicatechin at 1 mg/kg/day. At 3 weeks the animals were anesthetized and hemodynamics recorded. The heart was excised and for infarcted animals only the infarct size and heart structure (morphometry) were determined.
Methods of determining infarct size, hemodynamics, tissue collection statistical analysis is as described in Example 1.

Data set [6] concerns Sprague-Dawley rats. The data set is described as follows: Ischemia-reperfusion (45 min coronary ligation) infarct size, oral epicatechin pre-treatment (Example 1). As to conditions: for infarct area: epicatechin 1 mg/kg/day oral. On the procedure: as §2
Ischemia-reperfusion: Animals were anesthetized by intraperitoneal injection of ketamine (100 mg/kg) and xylazine (10 mg/kg), intubated, and positive-pressure ventilated. Following a left thoracotomy, the left anterior descending coronary artery was ligated for 45 min, (except in shams) released and the suture left in place. The chest was closed and animals allowed to fully recover. Successful occlusion and reperfusion were verified by visual inspection of left ventricle (LV) color. Sham animals were treated identically, except the ligature was not tightened.
Determination of Infarct Size: Terminal study hearts were excised and weighed. In 48 h hearts, the area at risk was determined by the reocclusion of the snare and infusion of trypan blue (0.4%) into the cannulated aorta. Hearts were sectioned at 0 mmHg into five 2 mm rings and stained using triphenyltetrazolium chloride to determine the infarct area. Computer assisted image analysis was used using blinded operators. For 3 week studies hearts were processed as above and sectioned to identify the infarct (i.e. scar) area. The images of unfixed, stained rings were also used to measure internal and external chamber diameters, anterior and septal wall thicknesses.
Statistical Analysis Comparisons between means±S.E.M were analyzed by student's t-tests or one-way ANOVA followed by Bonferroni post-hoc. P<0.05 was considered statistically significant. The investigator who analyzed the data was blinded to what group (control vs. treatment with epicatechin) the animal belonged to.

Setting [7] is: 48 h IR, 10 d epicatechin pretreatment.

Regarding `C[C@H]1c2cccc(O)c2C(O)=C2C(=O)[C@]3(O)C(O)=C(C(N)=O)C(=O)[C@@H](N(C)C)[C@@H]3[C@@H](O)[C@@H]21` [DOX, doxycycline], the “reduction of IR induced infarct size” value in the data set on Sprague Dawley rats (at 4 hours, IV 5 mg/kg) is around 10%.

Regarding `Oc1cc(O)c2c(c1)O[C@H](c1ccc(O)c(O)c1)[C@H](O)C2` [epicatechin], the AW thickness with Sprague-Dawley rats [1] (PCO 3 week) is reported as 0.446 ± 0.04 mm; with Sprague-Dawley rats [1] (PCO 48 h), 0.57 ± 0.03 mm; in the data set on Sprague-Dawley rats [1] (sham, 3 weeks) it was 0.58 ± 0.05 mm; in the data set on Sprague-Dawley rats [1] (sham, 48 h) it was 0.54 ± 0.05 mm; with Sprague-Dawley rats [4] (3 wk IR) it was 0.41 ± 0.02 mm; in the data set with Sprague-Dawley rats [4] (sham, 3 wk study), 0.53 ± 0.05 mm. In addition, the HW/BW with Sprague-Dawley rats [1] (PCO 3 week) came out at 4.4 ± 0.7; in the data set on Sprague-Dawley rats [1] (sham, 3 weeks) it was 3.82 ± 0.3. For the same compound, the “Inner LV diam.” value in the data set on Sprague-Dawley rats [1] (PCO 3 week) worked out at 0.546 ± 0.046 mm; with Sprague-Dawley rats [1] (sham, 3 weeks), 0.490 ± 0.046 mm; with Sprague-Dawley rats [4] (3 wk IR), 0.55 ± 0.05 mm; in the data set on Sprague-Dawley rats [4] (sham, 3 wk study), 0.52 ± 0.08 mm. For the same compound, the “Outer LV diam.” value in the data set with Sprague-Dawley rats [1] (PCO 3 week) is reported as 1.495 ± 0.031 mm; in the data set on Sprague-Dawley rats [1] (sham, 3 weeks) it was 1.469 ± 0.075 mm; in the data set with Sprague-Dawley rats [4] (3 wk IR), 1.6 ± 0.04 mm; with Sprague-Dawley rats [4] (sham, 3 wk study) it was 1.6 ± 0.1 mm. For the same compound, the SW thickness is given as 0.475 ± 0.02 mm with Sprague-Dawley rats [1] (PCO 3 week); 0.57 ± 0.02 mm in the data set on Sprague-Dawley rats [1] (PCO 48 h); 0.38 ± 0.04 mm with Sprague-Dawley rats [1] (sham, 3 weeks); 0.33 ± 0.06 mm with Sprague-Dawley rats [1] (sham, 48 h); 0.49 ± 0.03 mm in the data set with Sprague-Dawley rats [4] (3 wk IR); 0.47 ± 0.04 mm with Sprague-Dawley rats [4] (sham, 3 wk study). Also, the “HR (heart rate)” value is 302 ±18^ bpm in the data set with Sprague-Dawley rats [2] (3 wk IR, epicatechin); 373 ± 17 bpm in the data set with Sprague-Dawley rats [2] (48 h IR, 10 d epicatechin pretreatment, mean ± SEM); 346 ± 8 bpm in the data set on Sprague-Dawley rats [2] (normal rats, 10 d epicatechin 1 mg/kg/day oral, mean ± SEM); 328 ± 11 bpm with Sprague-Dawley rats [2] (sham, 3 wk study, epicatechin). Further, the LVEDP in the data set on Sprague-Dawley rats [2] (3 wk IR, epicatechin) is on record as 5.5 ± 1.5 mmHg; in the data set on Sprague-Dawley rats [2] (sham, 3 wk study, epicatechin), 2.6 ± 0.2 mmHg; with Sprague-Dawley rats [5] (PCO 3 week) it was 11 ± 1 mmHg; in the data set on Sprague-Dawley rats [5] (PCO 48 h), 5.8 ± 1.2 mmHg; in the data set with Sprague-Dawley rats [5] (sham, 3 weeks), 6.4 ± 0.9 mmHg; with Sprague-Dawley rats [5] (sham, 48 h) it was 4.3 ± 1.2 mmHg. Also, the LVPSP amounted to 108 ± 4 mmHg in the data set with Sprague-Dawley rats [2] (3 wk IR, epicatechin); 116 ± 6.2 mmHg in the data set with Sprague-Dawley rats [2] (sham, 3 wk study, epicatechin); 102 ± 3 mmHg in the data set on Sprague-Dawley rats [5] (PCO 3 week); 107 ± 4 mmHg in the data set with Sprague-Dawley rats [5] (PCO 48 h); 118 ± 4 mmHg in the data set on Sprague-Dawley rats [5] (sham, 3 weeks); 102 ± 2 mmHg in the data set on Sprague-Dawley rats [5] (sham, 48 h). Moreover, the MAP is on record as 85 ± 4 mmHg in the data set with Sprague-Dawley rats [2] (3 wk IR, epicatechin); 92 ± 11 mmHg in the data set with Sprague-Dawley rats [2] (sham, 3 wk study, epicatechin); 82 ± 2 mmHg in the data set with Sprague-Dawley rats [5] (PCO 3 week); 91 ± 5 mmHg in the data set with Sprague-Dawley rats [5] (PCO 48 h); 92 ± 4 mmHg with Sprague-Dawley rats [5] (sham, 3 weeks); 83 ± 2 mmHg in the data set with Sprague-Dawley rats [5] (sham, 48 h). In addition, the “LVEDP (left ventricular end diastolic pressure)” value in the data set on Sprague-Dawley rats [2] (setting [7]) turned out to be 4.9 ± 0.5 mmHg; in the data set with Sprague-Dawley rats [2] (normal rats, 10 d epicatechin) it was 6.7 ± 1.3 mmHg. The “LVPSP (left ventricular peak systolic pressure)” value in the data set with Sprague-Dawley rats [2] (setting [7]) is on record as 110 ± 5 mmHg; in the data set on Sprague-Dawley rats [2] (normal rats, 10 d epicatechin), 112 ± 14 mmHg. In addition, the “MAP (mean aortic pressure)” value is 90 ± 5 mm Hg in the data set with Sprague-Dawley rats [2] (setting [7]) and 99 ± 10 mm Hg in the data set with Sprague-Dawley rats [2] (normal rats, 10 d epicatechin). For the same compound, the blood pressure entry in the data set on Sprague-Dawley rats [2] (ten days of treatment in noninfarcted animals) is “did not reduce blood pressure”. Also, the “reduction of infarct size” value came to 33% in the data set with Sprague-Dawley rats [3] (3 weeks after infarction (permanent occlusion), FIG. 9a) and 50% in the data set with Sprague-Dawley rats [3] (48 h after permanent coronary occlusion, FIG. 8). In addition, the “HW/BW (heart weight/body weight)” value worked out at 4.5 ± 0.2 in the data set on Sprague-Dawley rats [4] (3 wk IR) and 3.2 ± 0.5 with Sprague-Dawley rats [4] (sham, 3 wk study). Besides, the HR with Sprague-Dawley rats [5] (PCO 3 week) worked out at 268 ± 10 bpm; in the data set with Sprague-Dawley rats [5] (PCO 48 h) it was 342 ± 8 bpm; in the data set with Sprague-Dawley rats [5] (sham, 3 weeks after thoracotomy) it was 303 ± 10 bpm; in the data set on Sprague-Dawley rats [5] (sham, 48 h after thoracotomy), 334 ± 10 bpm. For the same compound, the “reduction of IR induced infarct size” value in the data set with Sprague Dawley rats (at 48 h, IV 10 mg/kg) was determined as 36%. Moreover, the infarct area came out at 33.7±5.5% in the data set on Sprague-Dawley rats [6] (3 weeks after IR, control 50.4±5.6%, p=0.05) and 26.3±3.4% with Sprague-Dawley rats [6] (48 h after IR, 10 day pre-treatment, control 51.4±1.8%, P<0.0001). Besides, in the data set with Sprague-Dawley rats [6] (3 weeks post-IR), the “reduction in scar size” value was around 33%. The “reduction in infarct size” value in the data set with Sprague-Dawley rats [6] (temporary occlusion experiment, FIG. 1, vs vehicle) is around 50%.

With catechin, in the data set with Sprague Dawley rats (methods of Example 5, FIG. 16), the area at risk result is given as “no effect” and the infarction size entry is “no effect”.
